From PubChem BioAssay (NCI)
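Five compound concentrations were applied to cells in 96-well plates for 48 hours; endpoints were derived by simple linear interpolation of the resulting dose-response curve. At the TGI there is no net growth.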

Assays:
Experiment in all cases: NCI tumour cell line growth inhibition, 48 h
786-0 renal = test system: 786-0 renal
A498 renal = test system: A498 renal
A549 NSCLC = test system: A549 NSCLC
ACHN renal = test system: ACHN renal
BT-549 breast = test system: BT-549 breast
CAKI-1 renal = test system: CAKI-1 renal
CCRF-CEM leukemia = test system: CCRF-CEM leukemia
COLO 205 colon = test system: COLO 205 colon
DU-145 prostate = test system: DU-145 prostate
EKVX NSCLC = test system: EKVX NSCLC
HCC-2998 colon = test system: HCC-2998 colon
HCT-116 colon = test system: HCT-116 colon
HCT-15 colon = test system: HCT-15 colon
HL-60(TB) leukemia = test system: HL-60(TB) leukemia
HOP-62 NSCLC = test system: HOP-62 NSCLC
HOP-92 NSCLC = test system: HOP-92 NSCLC
HS 578T breast = test system: HS 578T breast
HT29 colon = test system: HT29 colon
IGROV1 ovarian = test system: IGROV1 ovarian
K-562 leukemia = test system: K-562 leukemia
KM12 colon = test system: KM12 colon
LOX IMVI melanoma = test system: LOX IMVI melanoma
M14 melanoma = test system: M14 melanoma
MALME-3M melanoma = test system: MALME-3M melanoma
MCF7 breast = test system: MCF7 breast
MDA-MB-231 breast = test system: MDA-MB-231 breast
MDA-MB-435 = test system: MDA-MB-435
MDA-N = test system: MDA-N
MOLT-4 leukemia = test system: MOLT-4 leukemia
NCI-H226 lung = test system: NCI-H226 lung
NCI-H23 lung = test system: NCI-H23 lung
NCI-H460 lung = test system: NCI-H460 lung
NCI-H522 lung = test system: NCI-H522 lung
NCI/ADR-RES ovarian = test system: NCI/ADR-RES ovarian
OVCAR-3 ovarian = test system: OVCAR-3 ovarian
OVCAR-4 ovarian = test system: OVCAR-4 ovarian
OVCAR-5 ovarian = test system: OVCAR-5 ovarian
OVCAR-8 ovarian = test system: OVCAR-8 ovarian
PC-3 prostate = test system: PC-3 prostate
RPMI-8226 leukemia = test system: RPMI-8226 leukemia
RXF 393 renal = test system: RXF 393 renal
SF-268 CNS = test system: SF-268 CNS
SF-295 CNS = test system: SF-295 CNS
SF-539 CNS = test system: SF-539 CNS
SK-MEL-2 melanoma = test system: SK-MEL-2 melanoma
SK-MEL-28 melanoma = test system: SK-MEL-28 melanoma
SK-MEL-5 melanoma = test system: SK-MEL-5 melanoma
SK-OV-3 ovarian = test system: SK-OV-3 ovarian
SN12C renal = test system: SN12C renal
SNB-19 CNS = test system: SNB-19 CNS
SNB-75 CNS = test system: SNB-75 CNS
SR leukemia = test system: SR leukemia
SW-620 colon = test system: SW-620 colon
T-47D breast = test system: T-47D breast
TK-10 renal = test system: TK-10 renal
U251 CNS = test system: U251 CNS
UACC-257 melanoma = test system: UACC-257 melanoma
UACC-62 melanoma = test system: UACC-62 melanoma
UO-31 renal = test system: UO-31 renal

With `COc1cc(C(=O)OC2CC34CCNC35CC(OC5(OC)C2O)c2cc3c(cc24)OCO3)ccc1O` (stereo unspecified) the TGI (786-0 renal) was > 100 µM, the TGI (A498 renal) was > 100 µM and the TGI (A549 NSCLC) was > 100 µM. The TGI (ACHN renal) was > 100 µM, the TGI (BT-549 breast) was > 100 µM and the TGI (CAKI-1 renal) was > 100 µM. The TGI (CCRF-CEM leukemia) was > 100 µM, the TGI (COLO 205 colon) was > 100 µM and the TGI (DU-145 prostate) was > 100 µM. The TGI (EKVX NSCLC) was > 100 µM, the TGI (HCC-2998 colon) was > 100 µM and the TGI (HCT-116 colon) was > 100 µM. The TGI (HCT-15 colon) was > 100 µM, the TGI (HL-60(TB) leukemia) was > 100 µM and the TGI (HOP-62 NSCLC) was > 100 µM. The TGI (HOP-92 NSCLC) was > 100 µM, the TGI (HS 578T breast) was > 100 µM and the TGI (HT29 colon) was > 100 µM. The TGI (IGROV1 ovarian) was > 100 µM, the TGI (K-562 leukemia) was > 100 µM and the TGI (KM12 colon) was > 100 µM. For the same compound, the TGI (LOX IMVI melanoma) was > 100 µM, the TGI (M14 melanoma) was > 100 µM and the TGI (MALME-3M melanoma) was > 100 µM. The TGI (MCF7 breast) was > 100 µM, the TGI (MDA-MB-231 breast) was > 100 µM and the TGI (MDA-MB-435) was > 100 µM. For the same compound, the TGI (MDA-N) was > 100 µM, the TGI (MOLT-4 leukemia) was > 100 µM and the TGI (NCI-H226 lung) was > 100 µM. The TGI (NCI-H23 lung) was > 100 µM, the TGI (NCI-H460 lung) was > 100 µM and the TGI (NCI-H522 lung) was > 100 µM. For the same compound, the TGI (NCI/ADR-RES ovarian) was > 100 µM, the TGI (OVCAR-3 ovarian) was > 100 µM and the TGI (OVCAR-4 ovarian) was > 100 µM. For the same compound, the TGI (OVCAR-5 ovarian) was > 100 µM, the TGI (OVCAR-8 ovarian) was > 100 µM and the TGI (PC-3 prostate) was > 100 µM. The TGI (RPMI-8226 leukemia) was > 100 µM, the TGI (RXF 393 renal) was > 100 µM and the TGI (SF-268 CNS) was > 100 µM. For the same compound, the TGI (SF-295 CNS) was > 100 µM, the TGI (SF-539 CNS) was > 100 µM and the TGI (SK-MEL-2 melanoma) was > 100 µM. The TGI (SK-MEL-28 melanoma) was > 100 µM, the TGI (SK-MEL-5 melanoma) was > 100 µM and the TGI (SK-OV-3 ovarian) was > 100 µM. The TGI (SN12C renal) was > 100 µM, the TGI (SNB-19 CNS) was > 100 µM and the TGI (SNB-75 CNS) was > 100 µM. For the same compound, the TGI (SR leukemia) was > 100 µM, the TGI (SW-620 colon) was > 100 µM and the TGI (T-47D breast) was > 100 µM. For the same compound, the TGI (TK-10 renal) was > 100 µM, the TGI (U251 CNS) was > 100 µM and the TGI (UACC-257 melanoma) was > 100 µM. The TGI (UACC-62 melanoma) was > 100 µM.

For `CCOC(=O)C1=NNC(C(=O)c2ccccc2)C1c1ccccc1` (stereo unspecified), the TGI (786-0 renal) was 6.3 µM, the TGI (A498 renal) was > 100 µM and the TGI (A549 NSCLC) was 41.2 µM. The TGI (ACHN renal) was 3.71 µM, the TGI (BT-549 breast) was 4.37 µM and the TGI (CAKI-1 renal) was 3.25 µM. For the same compound, the TGI (CCRF-CEM leukemia) was > 100 µM, the TGI (COLO 205 colon) was 3.69 µM and the TGI (DU-145 prostate) was 25.9 µM. It also gave a TGI (EKVX NSCLC) of 36.6 µM, a TGI (HCC-2998 colon) of 3.92 µM and a TGI (HCT-116 colon) of 7 µM. It also gave a TGI (HCT-15 colon) of 5.94 µM, a TGI (HL-60(TB) leukemia) of 2.86 µM and a TGI (HOP-62 NSCLC) of 26 µM. It also gave a TGI (HOP-92 NSCLC) of 4.46 µM, a TGI (HS 578T breast) of 20.5 µM and a TGI (HT29 colon) of 5.3 µM. For the same compound, the TGI (IGROV1 ovarian) was > 34 µM, the TGI (K-562 leukemia) was > 100 µM and the TGI (KM12 colon) was 19.8 µM. It also gave a TGI (LOX IMVI melanoma) of 10.6 µM, a TGI (M14 melanoma) of 3.75 µM and a TGI (MALME-3M melanoma) of 4.77 µM. It also gave a TGI (MCF7 breast) of 5.82 µM, a TGI (MDA-MB-231 breast) of 12.2 µM and a TGI (MDA-MB-435) of 3.89 µM. The TGI (MDA-N) was 3.98 µM, the TGI (MOLT-4 leukemia) was > 34.8 µM and the TGI (NCI-H226 lung) was 39.5 µM. For the same compound, the TGI (NCI-H23 lung) was 6.17 µM, the TGI (NCI-H522 lung) was 2.02 µM and the TGI (NCI/ADR-RES ovarian) was 12.3 µM. For the same compound, the TGI (OVCAR-3 ovarian) was 11 µM, the TGI (OVCAR-4 ovarian) was > 38.3 µM and the TGI (OVCAR-5 ovarian) was 17.4 µM. The TGI (OVCAR-8 ovarian) was 22 µM, the TGI (PC-3 prostate) was 22.5 µM and the TGI (RPMI-8226 leukemia) was > 47.2 µM. The TGI (RXF 393 renal) was 3.78 µM, the TGI (SF-268 CNS) was 19.2 µM and the TGI (SF-295 CNS) was 31.8 µM. It also gave a TGI (SF-539 CNS) of 4.76 µM, a TGI (SK-MEL-2 melanoma) of 31.2 µM and a TGI (SK-MEL-28 melanoma) of 3.67 µM. For the same compound, the TGI (SK-MEL-5 melanoma) was 5.78 µM, the TGI (SK-OV-3 ovarian) was 33.1 µM and the TGI (SN12C renal) was 3.89 µM. The TGI (SNB-19 CNS) was 27.8 µM, the TGI (SNB-75 CNS) was 16.7 µM and the TGI (SR leukemia) was > 100 µM. The TGI (SW-620 colon) was 3.48 µM, the TGI (T-47D breast) was 29.3 µM and the TGI (TK-10 renal) was 6.42 µM. The TGI (U251 CNS) was 8.48 µM, the TGI (UACC-257 melanoma) was 6.74 µM and the TGI (UACC-62 melanoma) was 8.63 µM. For the same compound, the TGI (UO-31 renal) was 3.71 µM.
